Assay [1] deals with DNA dC->dU-editing enzyme APOBEC-3G (Homo sapiens, UniProt Q9HC16). It is filed as functional.
Assay [2] has as its target DNA dC->dU-editing enzyme APOBEC-3A (Homo sapiens, UniProt P31941). Kind of assay: Dose Response confirmation of small molecule APOBEC3A DNA Deaminase Inhibitors via a fluorescence-based single-stranded DNA deaminase assay. [Related pubchem assays (depositor defined):AID493011, AID493024]. It is filed as functional.
In assay [3] the target is T1, Voltage-gated N-type calcium channel alpha-1B subunit/Amyloid beta A4 precursor protein-binding family A member 1 (Homo sapiens, UniProt Q00975+Q02410). It is filed as protein assay.
T1 sequence (Q00975 whole entry): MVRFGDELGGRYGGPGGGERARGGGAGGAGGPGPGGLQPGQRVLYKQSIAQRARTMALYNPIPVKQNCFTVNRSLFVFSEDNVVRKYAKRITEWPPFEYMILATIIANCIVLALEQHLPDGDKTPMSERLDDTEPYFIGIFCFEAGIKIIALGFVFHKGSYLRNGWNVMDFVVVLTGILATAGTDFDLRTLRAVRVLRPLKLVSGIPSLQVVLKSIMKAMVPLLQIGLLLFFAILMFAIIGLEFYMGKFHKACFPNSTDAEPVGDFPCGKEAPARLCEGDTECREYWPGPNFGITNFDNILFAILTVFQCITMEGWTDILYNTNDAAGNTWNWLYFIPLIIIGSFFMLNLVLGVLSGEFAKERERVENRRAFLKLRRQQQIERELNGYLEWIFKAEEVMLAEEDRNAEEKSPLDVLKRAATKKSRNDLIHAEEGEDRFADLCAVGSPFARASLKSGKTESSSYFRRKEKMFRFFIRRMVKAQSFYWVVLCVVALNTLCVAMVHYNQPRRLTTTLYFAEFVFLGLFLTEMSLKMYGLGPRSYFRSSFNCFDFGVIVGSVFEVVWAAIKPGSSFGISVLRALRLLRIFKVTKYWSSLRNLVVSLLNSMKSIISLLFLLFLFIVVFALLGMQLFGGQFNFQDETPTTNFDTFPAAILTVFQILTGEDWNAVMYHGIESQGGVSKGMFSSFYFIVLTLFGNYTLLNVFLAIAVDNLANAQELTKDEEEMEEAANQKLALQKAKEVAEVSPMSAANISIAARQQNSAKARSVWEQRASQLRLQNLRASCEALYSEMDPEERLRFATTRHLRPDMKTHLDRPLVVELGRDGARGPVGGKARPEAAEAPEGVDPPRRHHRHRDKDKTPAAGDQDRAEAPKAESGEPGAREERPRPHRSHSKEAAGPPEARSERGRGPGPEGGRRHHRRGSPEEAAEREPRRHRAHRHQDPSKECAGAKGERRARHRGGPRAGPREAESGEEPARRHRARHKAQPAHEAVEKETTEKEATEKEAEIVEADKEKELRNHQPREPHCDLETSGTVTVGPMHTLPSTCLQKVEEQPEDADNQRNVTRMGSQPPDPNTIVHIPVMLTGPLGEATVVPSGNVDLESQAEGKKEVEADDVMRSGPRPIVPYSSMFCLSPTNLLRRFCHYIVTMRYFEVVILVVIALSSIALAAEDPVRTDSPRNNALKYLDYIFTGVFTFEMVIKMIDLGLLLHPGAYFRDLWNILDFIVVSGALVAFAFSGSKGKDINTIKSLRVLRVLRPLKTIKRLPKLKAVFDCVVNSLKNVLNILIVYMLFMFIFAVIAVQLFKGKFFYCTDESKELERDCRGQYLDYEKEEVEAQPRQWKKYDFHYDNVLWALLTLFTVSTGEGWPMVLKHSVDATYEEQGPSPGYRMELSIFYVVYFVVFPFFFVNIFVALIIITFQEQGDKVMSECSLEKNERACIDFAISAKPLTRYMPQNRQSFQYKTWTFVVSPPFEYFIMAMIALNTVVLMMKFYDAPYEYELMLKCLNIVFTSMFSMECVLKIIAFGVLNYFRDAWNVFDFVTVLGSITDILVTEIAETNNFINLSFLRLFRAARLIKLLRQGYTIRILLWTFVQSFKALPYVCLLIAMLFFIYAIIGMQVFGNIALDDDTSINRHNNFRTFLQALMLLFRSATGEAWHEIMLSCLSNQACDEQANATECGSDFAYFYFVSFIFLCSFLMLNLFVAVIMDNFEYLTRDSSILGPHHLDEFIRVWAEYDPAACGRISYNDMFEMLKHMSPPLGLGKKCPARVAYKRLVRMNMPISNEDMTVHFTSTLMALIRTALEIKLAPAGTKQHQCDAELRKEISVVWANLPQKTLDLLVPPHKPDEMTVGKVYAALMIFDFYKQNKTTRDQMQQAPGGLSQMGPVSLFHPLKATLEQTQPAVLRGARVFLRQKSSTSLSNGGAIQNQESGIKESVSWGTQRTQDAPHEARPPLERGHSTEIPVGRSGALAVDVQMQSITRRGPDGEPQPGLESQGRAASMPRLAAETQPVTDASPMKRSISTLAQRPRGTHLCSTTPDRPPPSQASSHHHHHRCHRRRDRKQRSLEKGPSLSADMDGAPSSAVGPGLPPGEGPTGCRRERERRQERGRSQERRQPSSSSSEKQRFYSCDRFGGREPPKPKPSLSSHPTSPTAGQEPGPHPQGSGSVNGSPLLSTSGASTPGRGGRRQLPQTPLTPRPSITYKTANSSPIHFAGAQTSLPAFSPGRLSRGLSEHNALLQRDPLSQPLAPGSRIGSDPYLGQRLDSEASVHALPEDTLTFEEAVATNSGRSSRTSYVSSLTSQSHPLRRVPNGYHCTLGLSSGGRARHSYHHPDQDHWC
T1 sequence (Q02410 whole entry): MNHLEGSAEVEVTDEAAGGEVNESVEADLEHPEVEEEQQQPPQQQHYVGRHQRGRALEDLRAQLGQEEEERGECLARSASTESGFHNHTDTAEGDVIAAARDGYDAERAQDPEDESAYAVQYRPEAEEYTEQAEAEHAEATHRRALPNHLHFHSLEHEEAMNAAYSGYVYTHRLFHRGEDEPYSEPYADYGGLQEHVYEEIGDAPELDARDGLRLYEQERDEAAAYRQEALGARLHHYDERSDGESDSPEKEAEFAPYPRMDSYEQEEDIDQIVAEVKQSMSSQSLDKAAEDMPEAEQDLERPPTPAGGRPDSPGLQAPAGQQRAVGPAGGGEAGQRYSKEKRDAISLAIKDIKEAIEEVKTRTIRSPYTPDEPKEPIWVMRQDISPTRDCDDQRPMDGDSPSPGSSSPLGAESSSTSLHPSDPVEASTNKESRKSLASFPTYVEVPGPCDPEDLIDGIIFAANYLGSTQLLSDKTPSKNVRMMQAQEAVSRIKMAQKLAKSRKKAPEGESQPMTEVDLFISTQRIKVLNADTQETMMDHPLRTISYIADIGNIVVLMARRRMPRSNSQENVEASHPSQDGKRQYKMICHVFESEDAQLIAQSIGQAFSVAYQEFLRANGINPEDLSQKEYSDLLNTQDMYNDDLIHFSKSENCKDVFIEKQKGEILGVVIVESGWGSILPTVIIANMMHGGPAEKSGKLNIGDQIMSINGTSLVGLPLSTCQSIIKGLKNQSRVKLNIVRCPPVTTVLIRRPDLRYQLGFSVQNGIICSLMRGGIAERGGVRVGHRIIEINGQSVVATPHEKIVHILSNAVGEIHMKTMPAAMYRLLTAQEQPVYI
The target of assay [4] is T1, Voltage-gated N-type calcium channel alpha-1B subunit/Amyloid beta A4 precursor protein-binding family A member 1. The format is protein assay. This is another data set of the same source.
The target is the same in assay [5]. Kind of assay: disruptors of Mint-PDZ/N-type channel peptide interaction – biochemical, HTRF, SAR follow-up (AID 2489). It is filed as functional. (In general: TR-FRET usually uses a lanthanide donor and a delayed reading to cut background.)
For assay [6], the target named is Alkaline phosphatase, placental type (Homo sapiens, UniProt P05187). Kind of assay: PLAP enzyme inhibitors, confirmation, biochemical, luminescence (AID 1512). The format is functional.
Alkaline phosphatase, placental type, sequence (P05187 whole entry): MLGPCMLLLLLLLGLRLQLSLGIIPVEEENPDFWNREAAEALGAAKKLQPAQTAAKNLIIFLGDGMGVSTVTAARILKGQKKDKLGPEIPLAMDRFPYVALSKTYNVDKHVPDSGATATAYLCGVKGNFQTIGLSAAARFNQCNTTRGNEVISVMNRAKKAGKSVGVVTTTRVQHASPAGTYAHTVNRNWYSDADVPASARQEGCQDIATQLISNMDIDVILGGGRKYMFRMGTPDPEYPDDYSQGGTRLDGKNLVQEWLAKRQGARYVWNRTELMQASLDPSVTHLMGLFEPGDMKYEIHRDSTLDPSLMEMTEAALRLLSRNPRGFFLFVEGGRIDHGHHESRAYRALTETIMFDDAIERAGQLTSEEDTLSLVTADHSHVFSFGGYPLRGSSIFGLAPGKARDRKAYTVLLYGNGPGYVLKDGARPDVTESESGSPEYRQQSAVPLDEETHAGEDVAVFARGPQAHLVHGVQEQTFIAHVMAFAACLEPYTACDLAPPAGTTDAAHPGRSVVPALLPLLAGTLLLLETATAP
In assay [7] the target is T2, Alkaline phosphatase, tissue-nonspecific isozyme (Homo sapiens, UniProt P05186).
T2 sequence (P05186 whole entry): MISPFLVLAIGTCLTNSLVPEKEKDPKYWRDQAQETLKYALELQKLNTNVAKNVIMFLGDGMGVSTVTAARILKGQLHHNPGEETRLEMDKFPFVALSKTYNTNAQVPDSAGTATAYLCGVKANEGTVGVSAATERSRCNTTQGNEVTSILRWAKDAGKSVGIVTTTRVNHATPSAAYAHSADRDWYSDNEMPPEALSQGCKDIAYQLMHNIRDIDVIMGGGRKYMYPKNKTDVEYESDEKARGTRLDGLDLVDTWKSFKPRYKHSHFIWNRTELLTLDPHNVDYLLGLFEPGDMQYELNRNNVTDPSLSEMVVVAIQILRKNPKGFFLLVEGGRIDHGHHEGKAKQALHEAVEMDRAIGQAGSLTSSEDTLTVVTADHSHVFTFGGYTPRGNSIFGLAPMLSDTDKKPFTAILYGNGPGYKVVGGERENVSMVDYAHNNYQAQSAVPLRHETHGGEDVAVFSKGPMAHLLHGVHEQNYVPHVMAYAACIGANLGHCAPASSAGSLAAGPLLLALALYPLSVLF
Kind of assay: human TNAP enzyme inhibitors, SAR follow-up, biochemical, luminescent, dose response (AID 1056).

Assay [8] deals with T3, Tyrosine-protein phosphatase non-receptor type 7 (Homo sapiens, UniProt P35236).
T3 sequence (P35236 whole entry): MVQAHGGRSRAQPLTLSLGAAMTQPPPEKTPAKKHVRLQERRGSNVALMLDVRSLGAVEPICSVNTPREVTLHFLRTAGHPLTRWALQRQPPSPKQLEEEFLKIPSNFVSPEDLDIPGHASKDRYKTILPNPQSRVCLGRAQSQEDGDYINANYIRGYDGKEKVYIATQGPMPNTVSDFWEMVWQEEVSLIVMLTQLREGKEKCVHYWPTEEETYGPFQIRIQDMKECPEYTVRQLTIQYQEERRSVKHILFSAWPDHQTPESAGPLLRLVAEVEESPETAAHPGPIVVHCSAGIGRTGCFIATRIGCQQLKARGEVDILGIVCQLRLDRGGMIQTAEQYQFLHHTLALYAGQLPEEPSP
Kind of assay: HePTP (PTPN7) phosphatase inhibitor potency, SAR follow-up, biochemical, set 2 (AID 449736). The format is functional.

Assay [9] has as its target T4, Tyrosine-protein phosphatase non-receptor type 22 (Homo sapiens, UniProt Q9Y2R2).
T4 sequence (Q9Y2R2 whole entry): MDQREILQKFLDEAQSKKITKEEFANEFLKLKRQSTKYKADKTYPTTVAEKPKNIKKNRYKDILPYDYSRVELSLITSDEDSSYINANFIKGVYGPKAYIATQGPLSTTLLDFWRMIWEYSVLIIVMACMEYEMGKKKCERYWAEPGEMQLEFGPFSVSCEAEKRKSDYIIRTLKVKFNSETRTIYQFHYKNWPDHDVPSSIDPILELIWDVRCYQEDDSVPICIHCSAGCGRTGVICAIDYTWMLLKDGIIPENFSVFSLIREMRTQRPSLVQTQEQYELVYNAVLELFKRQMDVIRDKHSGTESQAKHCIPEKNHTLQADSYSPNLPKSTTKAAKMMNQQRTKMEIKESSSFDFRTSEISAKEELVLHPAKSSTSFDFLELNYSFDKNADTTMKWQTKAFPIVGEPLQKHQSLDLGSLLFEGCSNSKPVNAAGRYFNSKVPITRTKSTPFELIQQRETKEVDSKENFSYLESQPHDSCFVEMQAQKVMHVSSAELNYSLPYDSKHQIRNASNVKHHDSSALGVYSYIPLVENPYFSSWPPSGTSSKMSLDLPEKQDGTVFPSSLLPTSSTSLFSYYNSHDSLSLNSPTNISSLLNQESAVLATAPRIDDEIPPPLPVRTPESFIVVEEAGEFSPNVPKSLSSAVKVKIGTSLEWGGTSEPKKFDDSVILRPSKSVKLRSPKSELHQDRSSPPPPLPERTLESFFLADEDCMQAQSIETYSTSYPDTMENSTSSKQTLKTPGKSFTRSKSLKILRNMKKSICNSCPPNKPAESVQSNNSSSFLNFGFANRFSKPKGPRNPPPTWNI
Kind of assay: SAR LYP1 Fluorescent Assay using OMFP substrate for In Vitro dose response studies - Set 3. [Related pubchem assays (depositor defined):AID1779, AID1784, AID2140, AID2686]. It is filed as functional.

Assay [10] addresses T4, Tyrosine-protein phosphatase non-receptor type 22. Kind of assay: LYP (PTPN22) phosphatase inhibitor potency, SAR follow-up, biochemical, pCAP fluorogenic substrate, fluorescence, set 3 (AID 449727). The format is functional.
Assay [11] concerns the target Tyrosine-protein phosphatase non-receptor type 12 (Homo sapiens, UniProt Q05209). Kind of assay: SAR Selectivity Analysis of small molecule inhibitors of PEST using pCAP in a fluorescence assay. [Related pubchem assays (depositor defined):AID1779, AID1784, AID2135]. The format is functional.
For assay [12], the target named is Eukaryotic translation initiation factor 4E (Mus musculus, UniProt P63073). Kind of assay: eIF4E–eIF4G protein interaction inhibitors, dose response, biochemical, TR-FRET (AID 855).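 Also: potency for disrupting eIF4E binding to eIF4GI seen as loss of FRET.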 It is filed as functional.
In assay [13] the target is T5, Hexokinase HKDC1 (Homo sapiens, UniProt Q2TB90).
T5 sequence (Q2TB90 whole entry): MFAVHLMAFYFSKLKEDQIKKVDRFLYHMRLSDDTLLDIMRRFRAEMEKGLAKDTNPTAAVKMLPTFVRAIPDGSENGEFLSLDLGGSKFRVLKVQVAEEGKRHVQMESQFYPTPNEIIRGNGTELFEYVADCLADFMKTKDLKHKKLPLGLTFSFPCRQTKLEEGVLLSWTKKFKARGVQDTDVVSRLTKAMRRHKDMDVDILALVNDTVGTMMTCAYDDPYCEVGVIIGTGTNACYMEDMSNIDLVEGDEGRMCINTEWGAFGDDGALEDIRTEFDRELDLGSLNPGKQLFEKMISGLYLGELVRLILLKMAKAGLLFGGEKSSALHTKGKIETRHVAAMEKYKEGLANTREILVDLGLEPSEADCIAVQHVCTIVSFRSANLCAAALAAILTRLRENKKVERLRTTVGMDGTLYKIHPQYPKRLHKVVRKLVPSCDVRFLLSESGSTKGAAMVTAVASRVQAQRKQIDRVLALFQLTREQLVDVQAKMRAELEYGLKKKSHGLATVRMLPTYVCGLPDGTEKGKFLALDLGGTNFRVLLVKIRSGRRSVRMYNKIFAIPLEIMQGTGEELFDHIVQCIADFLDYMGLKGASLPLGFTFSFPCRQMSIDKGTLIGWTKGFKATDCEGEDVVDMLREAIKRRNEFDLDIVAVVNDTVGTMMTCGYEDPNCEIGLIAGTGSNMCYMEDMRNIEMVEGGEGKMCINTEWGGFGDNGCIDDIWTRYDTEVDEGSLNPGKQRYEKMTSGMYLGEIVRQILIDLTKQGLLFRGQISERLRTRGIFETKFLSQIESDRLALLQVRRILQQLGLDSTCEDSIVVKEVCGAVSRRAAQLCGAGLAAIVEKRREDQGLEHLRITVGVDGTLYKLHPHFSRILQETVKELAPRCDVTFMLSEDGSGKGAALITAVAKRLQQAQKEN
Kind of assay: HKDC1 hexokinase activators, dose response, biochemical, W721R variant (AID 504730). It is filed as functional.

Assay [14] has as its target Troponin, cardiac muscle (Homo sapiens, UniProt P19429+P45379+P63316). Kind of assay: Fluorescence-based biochemical high throughput dose response assay for activators of the calcium sensitivity of cardiac Regulated Thin Filaments (RTF). [Related pubchem assays (depositor defined):AID493008, AID493018, AID504382, AID504383]. The format is protein-complex assay.
Assay [15] deals with Glyceraldehyde-3-phosphate dehydrogenase (Homo sapiens, UniProt P04406).

Calls of active or inactive are those of the source. Rule as the data show it, for most assays here: actives have a measured IC50 and inactives only a lower limit.

DNA dC->dU-editing enzyme APOBEC-3A, sequence (P31941 whole entry): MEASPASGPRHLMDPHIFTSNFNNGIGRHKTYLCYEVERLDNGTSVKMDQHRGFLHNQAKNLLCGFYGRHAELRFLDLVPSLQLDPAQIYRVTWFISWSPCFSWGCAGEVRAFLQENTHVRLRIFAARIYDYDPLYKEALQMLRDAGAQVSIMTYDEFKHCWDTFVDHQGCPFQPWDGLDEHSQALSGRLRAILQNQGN
DNA dC->dU-editing enzyme APOBEC-3G, sequence (Q9HC16 whole entry): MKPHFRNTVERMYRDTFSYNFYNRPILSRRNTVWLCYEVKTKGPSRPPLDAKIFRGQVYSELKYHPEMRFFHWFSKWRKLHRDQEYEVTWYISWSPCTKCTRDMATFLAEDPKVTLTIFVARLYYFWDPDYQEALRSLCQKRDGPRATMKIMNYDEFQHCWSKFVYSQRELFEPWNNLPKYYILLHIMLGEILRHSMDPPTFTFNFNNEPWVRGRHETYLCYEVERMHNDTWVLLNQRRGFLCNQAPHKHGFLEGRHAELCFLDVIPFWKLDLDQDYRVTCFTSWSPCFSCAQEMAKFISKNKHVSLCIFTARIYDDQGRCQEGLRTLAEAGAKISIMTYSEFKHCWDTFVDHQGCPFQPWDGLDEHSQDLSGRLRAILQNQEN
Tyrosine-protein phosphatase non-receptor type 12, sequence (Q05209 whole entry): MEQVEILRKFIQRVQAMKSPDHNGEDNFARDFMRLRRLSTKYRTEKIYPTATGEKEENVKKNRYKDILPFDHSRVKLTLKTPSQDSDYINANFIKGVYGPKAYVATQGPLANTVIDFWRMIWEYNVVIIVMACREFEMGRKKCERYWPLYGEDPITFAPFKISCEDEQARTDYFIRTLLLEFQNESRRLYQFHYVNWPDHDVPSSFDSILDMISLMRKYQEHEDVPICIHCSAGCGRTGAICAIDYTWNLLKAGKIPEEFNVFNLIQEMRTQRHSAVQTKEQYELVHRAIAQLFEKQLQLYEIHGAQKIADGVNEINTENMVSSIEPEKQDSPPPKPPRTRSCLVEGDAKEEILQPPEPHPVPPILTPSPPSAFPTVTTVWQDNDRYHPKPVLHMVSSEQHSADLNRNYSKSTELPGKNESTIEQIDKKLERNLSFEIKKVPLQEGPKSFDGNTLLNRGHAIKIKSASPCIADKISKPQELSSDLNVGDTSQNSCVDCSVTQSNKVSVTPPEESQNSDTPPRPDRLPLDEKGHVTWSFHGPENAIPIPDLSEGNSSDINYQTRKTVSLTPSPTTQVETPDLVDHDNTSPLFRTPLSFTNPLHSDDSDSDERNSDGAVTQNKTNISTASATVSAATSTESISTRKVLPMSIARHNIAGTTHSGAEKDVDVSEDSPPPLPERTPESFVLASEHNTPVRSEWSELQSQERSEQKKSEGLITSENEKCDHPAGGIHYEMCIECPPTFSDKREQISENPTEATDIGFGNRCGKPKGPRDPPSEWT

For the compound `CSc1ccc(S(=O)(=O)N2CCC(C(=O)NCc3ccccn3)CC2)cc1`, the values for the IC50 in assay [1] and in [2] were 13.9 µM (active) and 6.18 µM (active), respectively.

For the compound `CC(=O)NS(=O)(=O)c1ccc(NC(=O)/C=C/c2ccc(C)o2)cc1`, the IC50 in assay [3] was 6.9 µM (active); in assay [4], 2.19 µM (active); in assay [5] it was > 56.8 µM (inactive).

On to `CC(C)(C)C1(C)Oc2cccc(O)c2O1` (stereo not drawn), for which the IC50 in assay [6] and in assay [7] was > 100 µM (inactive) throughout.

Turning to `CC(C)(C)OC(=O)N1CC(O)CC1C(=O)OCC(=O)c1ccc(-c2ccccc2)cc1` (stereo not drawn), the results for the IC50 in assay [1] and in [2] were 2.89 µM (active) and 1.79 µM (active), respectively.

Take `COc1ccc(CN2C(=O)/C(=C/c3ccc(-c4ccc(Cl)c(C(=O)O)c4)o3)SC2=S)cc1`: the IC50 in assay [8] was 0.331 µM (active); in assay [9] it was 44.5 µM (active); in [10], 8.93 µM (active); in [11], 3.13 µM (active); in assay [12], 16.4 µM (active).

For `O=C(COC(=O)c1n[nH]c2ccccc12)c1cccc(Br)c1`, the EC50 in assay [13] is > 80 µM (inactive).

For `O=C1c2ccccc2C(Nc2cccnc2)N1Cc1ccccc1Cl` (stereo not drawn), in assay [14], the EC50 was > 71.5 µM (inactive).

Turning to `CN1CCN(C(=O)c2cc(-c3ccc(Cl)cc3Cl)n[nH]2)CC1`, the IC50 is > 100 µM (inactive) in assay [6] and > 100 µM (not active) in assay [15].

Broadly, the IC50 is the concentration at which inhibition is half-maximal. As a reminder, the EC50 is the concentration at which the effect is half-maximal.

The values above are taken from ChEMBL document CHEMBL1201862, “PubChem BioAssay data set” (2004).
